Source: patent publication US12583892B2 (priority 2020, dated 2026)

System: NMDAR-dependent EPSCs
Format: cell-based, rat

CC(C(O)c1ccc(O)cc1)N1CCC(Cc2ccccc2)CC1 (stereo not shown) [ifenprodil]
NMDARs-dependent EPSCs, young neurons: inhibition
